Test results: ChEMBL document CHEMBL5380878, “A beginner's guide to current synthetic linker strategies towards VHL-recruiting PROTACs” (Bioorg Med Chem, 2023)
pEC50: −log10 of the molar value. Each block holds one compound with its values, some of them ahead of it.

Columns and labels:
Type in all cases: cell-based
[1] = biological target: T1, von Hippel-Lindau disease tumor suppressor/Receptor-type tyrosine-protein kinase FLT3 (Homo sapiens, UniProt P36888+P40337); test: PROTAC activity at VHL/FLT3 in human MV4-11 cells assessed as induction of FLT3 degradation by Western blot analysis
Target sequence in this assay (P36888 whole entry): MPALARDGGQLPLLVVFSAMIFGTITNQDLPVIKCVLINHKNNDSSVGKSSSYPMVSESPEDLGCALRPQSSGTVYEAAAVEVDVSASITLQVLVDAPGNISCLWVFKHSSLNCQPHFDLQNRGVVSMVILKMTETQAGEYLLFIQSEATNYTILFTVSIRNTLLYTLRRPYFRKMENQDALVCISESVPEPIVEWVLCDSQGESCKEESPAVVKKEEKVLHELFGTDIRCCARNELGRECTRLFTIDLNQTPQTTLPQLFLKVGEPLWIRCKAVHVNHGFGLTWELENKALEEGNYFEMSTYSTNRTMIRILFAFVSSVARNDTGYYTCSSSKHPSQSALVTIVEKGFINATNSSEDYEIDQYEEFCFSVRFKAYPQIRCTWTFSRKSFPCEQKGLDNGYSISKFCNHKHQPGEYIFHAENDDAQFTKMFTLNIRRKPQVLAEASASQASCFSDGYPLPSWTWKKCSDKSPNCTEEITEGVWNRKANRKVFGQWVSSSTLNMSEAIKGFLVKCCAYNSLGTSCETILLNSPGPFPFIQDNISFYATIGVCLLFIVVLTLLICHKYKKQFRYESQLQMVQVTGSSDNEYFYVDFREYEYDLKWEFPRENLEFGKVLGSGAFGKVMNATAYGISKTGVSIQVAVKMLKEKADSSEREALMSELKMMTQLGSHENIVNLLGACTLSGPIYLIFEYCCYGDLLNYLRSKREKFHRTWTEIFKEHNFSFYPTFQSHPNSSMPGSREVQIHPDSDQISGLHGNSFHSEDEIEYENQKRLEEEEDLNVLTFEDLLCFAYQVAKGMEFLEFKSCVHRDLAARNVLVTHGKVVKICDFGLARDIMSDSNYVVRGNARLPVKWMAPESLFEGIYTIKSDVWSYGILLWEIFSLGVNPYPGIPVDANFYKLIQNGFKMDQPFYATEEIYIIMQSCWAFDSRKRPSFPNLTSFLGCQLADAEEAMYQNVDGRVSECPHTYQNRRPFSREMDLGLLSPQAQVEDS
Target sequence in this assay (P40337 whole entry): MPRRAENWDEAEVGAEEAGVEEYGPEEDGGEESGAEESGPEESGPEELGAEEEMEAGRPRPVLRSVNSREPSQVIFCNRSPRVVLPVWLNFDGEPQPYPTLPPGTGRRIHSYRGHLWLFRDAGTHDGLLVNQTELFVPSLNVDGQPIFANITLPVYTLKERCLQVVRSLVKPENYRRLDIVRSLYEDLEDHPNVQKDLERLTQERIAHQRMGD

[2] = biological target: T1, von Hippel-Lindau disease tumor suppressor/Receptor-type tyrosine-protein kinase FLT3; test: PROTAC activity at VHL/FLT3 in human MV4-11 cells assessed as FLT3 degradation by measuring maximal efficacy by Western blot analysis relative to control
[3] = biological target: von Hippel-Lindau disease tumor suppressor/Bromodomain-containing protein 4 (Homo sapiens, UniProt O60885+P40337); test: PROTAC activity in VHL/BRD4 in human MV4-11 cells assessed as induction of BRD4 degradation by Western blot analysis
Chain of von Hippel-Lindau disease tumor suppressor/Bromodomain-containing protein 4 (P40337 whole entry, looked up, other chains not shown): as the sequence (P40337 whole entry) above

[4] = biological target: von Hippel-Lindau disease tumor suppressor/Cyclin-dependent kinase 6 (Homo sapiens) (UniProt Q00534+P40337); test: PROTAC activity at VHL/CDK6 in human MV4-11 cells assessed as CDK6 degradation by measuring maximal efficacy by Western blot analysis
Chain of von Hippel-Lindau disease tumor suppressor/Cyclin-dependent kinase 6 (Homo sapiens) (P40337 whole entry, looked up): as the sequence (P40337 whole entry) above
Chain of von Hippel-Lindau disease tumor suppressor/Cyclin-dependent kinase 6 (Homo sapiens) (Q00534 whole entry, looked up): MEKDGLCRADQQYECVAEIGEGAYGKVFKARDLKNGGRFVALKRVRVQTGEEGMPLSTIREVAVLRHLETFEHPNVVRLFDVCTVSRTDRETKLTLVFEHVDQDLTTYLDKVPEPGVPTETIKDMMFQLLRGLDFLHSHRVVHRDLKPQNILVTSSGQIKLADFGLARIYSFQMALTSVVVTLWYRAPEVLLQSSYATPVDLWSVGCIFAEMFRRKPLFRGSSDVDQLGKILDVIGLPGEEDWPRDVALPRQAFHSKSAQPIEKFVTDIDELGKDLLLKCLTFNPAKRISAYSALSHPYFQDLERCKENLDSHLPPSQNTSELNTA

[5] = biological target: von Hippel-Lindau disease tumor suppressor/Cyclin-dependent kinase 6 (Homo sapiens, UniProt P40337+Q00534); test: PROTAC activity at VHL/CDK6 in human MV4-11 cells assessed as induction of CDK6 degradation by Western blot analysis
Chain of von Hippel-Lindau disease tumor suppressor/Cyclin-dependent kinase 6 (Q00534 whole entry): as the sequence (Q00534 whole entry, looked up) above
Chain of von Hippel-Lindau disease tumor suppressor/Cyclin-dependent kinase 6 (P40337 whole entry): as the sequence (P40337 whole entry) above

[6] = biological target: von Hippel-Lindau disease tumor suppressor/Leucine-rich repeat serine/threonine-protein kinase 2 (Homo sapiens) (UniProt Q5S007+P40337); test: PROTAC activity at VHL/LRRK2 in human MV4-11 cells assessed as LRRK2 degradation by measuring maximal efficacy by Western blot analysis relative to control
Chain of von Hippel-Lindau disease tumor suppressor/Leucine-rich repeat serine/threonine-protein kinase 2 (Homo sapiens) (P40337 whole entry, looked up): as the sequence (P40337 whole entry) above
Chain of von Hippel-Lindau disease tumor suppressor/Leucine-rich repeat serine/threonine-protein kinase 2 (Homo sapiens) (Q5S007 whole entry, looked up): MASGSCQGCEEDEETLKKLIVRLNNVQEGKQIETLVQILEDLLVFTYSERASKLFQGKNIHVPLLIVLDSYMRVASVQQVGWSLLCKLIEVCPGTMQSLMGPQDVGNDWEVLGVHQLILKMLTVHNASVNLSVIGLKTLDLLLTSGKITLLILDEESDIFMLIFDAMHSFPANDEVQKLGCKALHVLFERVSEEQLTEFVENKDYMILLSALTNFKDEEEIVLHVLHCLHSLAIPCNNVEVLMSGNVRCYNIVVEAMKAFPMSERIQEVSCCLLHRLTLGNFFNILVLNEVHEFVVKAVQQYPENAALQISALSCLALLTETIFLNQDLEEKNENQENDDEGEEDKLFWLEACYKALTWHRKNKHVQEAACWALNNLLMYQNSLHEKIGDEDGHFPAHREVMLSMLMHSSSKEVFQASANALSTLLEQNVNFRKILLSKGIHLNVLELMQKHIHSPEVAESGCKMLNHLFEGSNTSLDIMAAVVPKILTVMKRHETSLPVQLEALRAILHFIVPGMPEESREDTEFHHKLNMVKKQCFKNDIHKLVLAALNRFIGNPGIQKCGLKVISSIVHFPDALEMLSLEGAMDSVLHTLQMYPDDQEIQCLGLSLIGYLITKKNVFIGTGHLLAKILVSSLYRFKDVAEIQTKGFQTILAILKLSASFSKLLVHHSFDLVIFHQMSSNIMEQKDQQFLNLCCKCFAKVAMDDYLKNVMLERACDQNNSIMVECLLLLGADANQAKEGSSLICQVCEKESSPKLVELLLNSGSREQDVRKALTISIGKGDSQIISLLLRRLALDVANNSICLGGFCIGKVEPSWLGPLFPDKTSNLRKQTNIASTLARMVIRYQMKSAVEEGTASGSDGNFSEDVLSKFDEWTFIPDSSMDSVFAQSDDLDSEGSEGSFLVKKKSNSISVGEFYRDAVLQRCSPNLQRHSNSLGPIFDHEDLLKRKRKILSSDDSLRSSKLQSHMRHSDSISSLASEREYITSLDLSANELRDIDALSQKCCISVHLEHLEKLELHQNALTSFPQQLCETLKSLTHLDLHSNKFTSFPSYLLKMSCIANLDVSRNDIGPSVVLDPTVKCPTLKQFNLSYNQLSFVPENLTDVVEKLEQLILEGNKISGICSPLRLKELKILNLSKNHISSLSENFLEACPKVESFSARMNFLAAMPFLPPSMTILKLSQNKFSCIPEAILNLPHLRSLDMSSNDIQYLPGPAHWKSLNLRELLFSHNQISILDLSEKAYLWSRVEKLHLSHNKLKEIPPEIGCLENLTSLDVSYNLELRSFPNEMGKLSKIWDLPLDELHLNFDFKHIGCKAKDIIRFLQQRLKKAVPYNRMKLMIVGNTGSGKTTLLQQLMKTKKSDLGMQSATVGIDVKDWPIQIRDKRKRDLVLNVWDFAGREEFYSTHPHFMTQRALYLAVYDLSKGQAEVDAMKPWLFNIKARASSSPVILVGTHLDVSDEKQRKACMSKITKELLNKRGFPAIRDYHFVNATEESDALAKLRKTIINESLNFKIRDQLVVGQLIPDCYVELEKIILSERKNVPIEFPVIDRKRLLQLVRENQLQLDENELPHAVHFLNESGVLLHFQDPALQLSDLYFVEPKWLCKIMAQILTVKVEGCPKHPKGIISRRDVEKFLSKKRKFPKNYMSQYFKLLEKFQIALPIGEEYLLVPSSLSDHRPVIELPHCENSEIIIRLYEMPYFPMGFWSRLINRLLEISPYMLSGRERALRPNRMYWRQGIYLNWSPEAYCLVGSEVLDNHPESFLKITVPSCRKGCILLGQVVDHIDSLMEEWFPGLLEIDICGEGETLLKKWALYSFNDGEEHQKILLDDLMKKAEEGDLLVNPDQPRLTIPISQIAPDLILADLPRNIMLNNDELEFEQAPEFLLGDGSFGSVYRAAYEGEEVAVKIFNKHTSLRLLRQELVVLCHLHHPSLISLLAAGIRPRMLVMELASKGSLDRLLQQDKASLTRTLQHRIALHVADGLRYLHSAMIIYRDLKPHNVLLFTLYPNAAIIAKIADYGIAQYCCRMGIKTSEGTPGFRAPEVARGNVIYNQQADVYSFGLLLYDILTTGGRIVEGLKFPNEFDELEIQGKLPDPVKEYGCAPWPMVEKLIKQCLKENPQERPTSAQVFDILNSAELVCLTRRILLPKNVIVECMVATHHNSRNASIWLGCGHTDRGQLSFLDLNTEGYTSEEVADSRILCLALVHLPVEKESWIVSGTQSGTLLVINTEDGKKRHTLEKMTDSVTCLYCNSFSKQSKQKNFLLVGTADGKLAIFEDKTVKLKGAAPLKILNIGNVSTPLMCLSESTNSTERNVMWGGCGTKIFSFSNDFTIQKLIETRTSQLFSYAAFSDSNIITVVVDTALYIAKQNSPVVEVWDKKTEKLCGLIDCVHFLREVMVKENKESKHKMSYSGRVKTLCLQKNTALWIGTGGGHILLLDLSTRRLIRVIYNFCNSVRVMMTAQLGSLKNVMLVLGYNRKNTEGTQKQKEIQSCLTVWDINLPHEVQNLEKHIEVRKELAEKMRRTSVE

[7] = biological target: von Hippel-Lindau disease tumor suppressor/Leucine-rich repeat serine/threonine-protein kinase 2 (Homo sapiens, UniProt P40337+Q5S007); test: PROTAC activity at VHL/LRRK2 in human MV4-11 cells assessed as induction of LRRK2 degradation by Western blot analysis
Chain of von Hippel-Lindau disease tumor suppressor/Leucine-rich repeat serine/threonine-protein kinase 2 (Q5S007 whole entry): as the sequence (Q5S007 whole entry, looked up) above
Chain of von Hippel-Lindau disease tumor suppressor/Leucine-rich repeat serine/threonine-protein kinase 2 (P40337 whole entry): as the sequence (P40337 whole entry) above

- pEC50 [1]: > 8.30
- Emax [2]: 90%
Structure (SMILES): Cc1ncsc1-c1ccc(CNC(=O)[C@@H]2C[C@@H](O)CN2C(=O)[C@@H](NC(=O)CCOCCOCCOc2ccc3c(c2)sc2nc(-c4ccc(NC(=O)Nc5cc(C(C)(C)C)on5)cc4)cn23)C(C)(C)C)cc1

- pEC50 [3]: 7.80
Structure (SMILES): Cc1cc([C@H](C(=O)N2C[C@H](O)C[C@H]2C(=O)N[C@@H](C)c2ccc(-c3scnc3C#CCOCCOCCOCCOCCNC(=O)C[C@@H]3N=C(c4ccc(Cl)cc4)c4c(sc(C)c4C)-n4c(C)nnc43)cc2)C(C)C)on1

- Emax [4]: 95%
- pEC50 [5]: 8.29
Structure (SMILES): CC(=O)c1c(C)c2cnc(Nc3ccc(N4CCN(CCOCCOCCOc5cc(-c6scnc6C)ccc5CNC(=O)[C@@H]5C[C@@H](O)CN5C(=O)[C@@H](NC(=O)C5(F)CC5)C(C)(C)C)CC4)cn3)nc2n(C2CCCC2)c1=O

- Emax [6]: > 82%
- pEC50 [7]: 7.82
Structure (SMILES): CNc1nc(Nc2ccc(C(=O)N3CCN(C[C@H]4CC[C@H](CSC(C)(C)[C@H](NC(=O)C5(F)CC5)C(=O)N5C[C@H](O)C[C@H]5C(=O)NCc5ccc(-c6scnc6C)cc5)CC4)CC3)cc2OC)ncc1Cl
